Experimental data taken from ChEMBL document CHEMBL1144965, “A series of 2(Z)-2-benzylidene-6,7-dihydroxybenzofuran-3[2H]-ones as inhibitors of chorismate synthase” (Bioorg Med Chem Lett, 2003).

Legend:
Chorismate synthase [1] = biological target: T1, Chorismate synthase (Streptococcus pneumoniae serotype 4 (strain ATCC BAA-334 / TIGR4), UniProt P0A2Y6); assay: Inhibitory concentration against Streptococcus pneumoniae chorismate synthase
T1 sequence (P0A2Y6 whole entry): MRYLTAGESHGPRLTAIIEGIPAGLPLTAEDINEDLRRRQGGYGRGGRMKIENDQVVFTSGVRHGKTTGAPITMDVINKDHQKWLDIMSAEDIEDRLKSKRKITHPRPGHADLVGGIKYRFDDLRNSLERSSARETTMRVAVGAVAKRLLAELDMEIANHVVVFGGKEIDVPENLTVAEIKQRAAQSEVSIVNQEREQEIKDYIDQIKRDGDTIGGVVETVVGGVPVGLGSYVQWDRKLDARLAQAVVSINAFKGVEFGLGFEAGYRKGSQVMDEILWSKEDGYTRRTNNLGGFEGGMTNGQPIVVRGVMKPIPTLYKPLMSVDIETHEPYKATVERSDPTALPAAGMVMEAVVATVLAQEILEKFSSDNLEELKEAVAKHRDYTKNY

Chorismate synthase [2] = biological target: T1, Chorismate synthase; assay: Inhibitory concentration against Streptococcus pneumoniae chorismate synthase; Not active
[3] = (§1) Non-competitive inhibitory activity with respect to cofactor FMN
[4] = as §1; remark: listed apart in the source
[5] = biological target: Chorismate synthase (Streptococcus pneumoniae); assay: Competitive inhibitory activity with respect to EPSP (5-enolpyruvyl-shikimate- 3-phosphate) at chorismate synthase
[6] = substrate: CCN(CC)c1ccc(/C=C2/Oc3c(ccc(O)c3O)C2=O)cc1
Description: Michaelis-Menten constant for EPSP (5-enolpyruvyl-shikimate- 3-phosphate) synthase was evaluated

IC50 (Chorismate synthase [1])	Molecule	further results
580 nM	CC(C)COc1ccc(/C=C2/Oc3c(ccc(O)c3O)C2=O)c(O)c1	
	N#Cc1ccc(/C=C2/Oc3c(ccc(O)c3O)C2=O)cc1	IC50 (Chorismate synthase [2]): Not Active
1800 nM	O=C(O)COc1ccccc1/C=C1/Oc2c(ccc(O)c2O)C1=O	
5000 nM	CCN(CC)c1ccc(/C=C2/Oc3c(ccc(O)c3O)C2=O)c(O)c1	
5500 nM	O=C1/C(=C\c2ccc(N3CCCC3)cc2)Oc2c1ccc(O)c2O	
4800 nM	O=C1/C(=C\c2ccc([N+](=O)[O-])cc2)Oc2c1ccc(O)c2O	
3400 nM	CCN(CCO)c1ccc(/C=C2/Oc3c(ccc(O)c3O)C2=O)c(C)c1	
14300 nM	COc1ccc(/C=C2/Oc3c(ccc(O)c3O)C2=O)cc1	
650 nM	CCOC(=O)CCCOc1ccc(/C=C2/Oc3c(ccc(O)c3O)C2=O)c(O)c1	
	CCN(CC)c1ccc(/C=C2/Oc3c(ccc(O)c3O)C2=O)cc1	Ki [3]: 1700 nM
25900 nM	CN(C)c1ccc(/C=C2/Oc3c(ccc(O)c3O)C2=O)cc1	
1000 nM	CC(C)Oc1ccc(/C=C2/Oc3c(ccc(O)c3O)C2=O)c(O)c1	
17300 nM	O=C1/C(=C\c2ccccc2C(F)(F)F)Oc2c1ccc(O)c2O	
2500 nM	O=C1/C(=C\c2ccc(OCCCO)cc2O)Oc2c1ccc(O)c2O	
5100 nM	O=C1/C(=C\c2ccc(-n3ccnc3)cc2)Oc2c1ccc(O)c2O	
1600 nM	O=C1/C(=C\c2ccc(OCCCCCCO)cc2O)Oc2c1ccc(O)c2O	
1100 nM	N#CCCCOc1ccc(/C=C2/Oc3c(ccc(O)c3O)C2=O)c(O)c1	
2000 nM	O=C1/C(=C\c2ccccc2[N+](=O)[O-])Oc2c1ccc(O)c2O	
1100 nM	O=C(O)CCCOc1ccc(/C=C2/Oc3c(ccc(O)c3O)C2=O)c(O)c1	
5800 nM	CCOc1ccc(/C=C2/Oc3c(ccc(O)c3O)C2=O)cc1	
> 60000 nM	COc1ccccc1/C=C1/Oc2c(ccc(O)c2O)C1=O	
450 nM	CCCCOc1ccc(/C=C2/Oc3c(ccc(O)c3O)C2=O)c(O)c1	

IC50 (Chorismate synthase [1])	Molecule	further results
	Cc1ccc(/C=C2/Oc3c(ccc(O)c3O)C2=O)cc1	IC50 (Chorismate synthase [2]): Not Active
1500 nM	CCCCOc1ccc(/C=C2/Oc3c(ccc(O)c3O)C2=O)cc1	
1700 nM	COc1cccc(/C=C2/Oc3c(ccc(O)c3O)C2=O)c1O	
220 nM	CCCCCOc1ccc(/C=C2/Oc3c(ccc(O)c3O)C2=O)c(O)c1	
4000 nM	Cc1ccccc1/C=C1/Oc2c(ccc(O)c2O)C1=O	
3500 nM	O=C1/C(=C\c2ccccc2)Oc2c1ccc(O)c2O	
24000 nM	O=C(O)c1ccc(/C=C2/Oc3c(ccc(O)c3O)C2=O)cc1	
10300 nM	CCOC(=O)COc1ccc(/C=C2/Oc3c(ccc(O)c3O)C2=O)c(O)c1	
5200 nM	O=C1/C(=C\c2ccccc2Cl)Oc2c1ccc(O)c2O	
800 nM	O=C1/C(=C\c2ccccc2O)Oc2c1ccc(O)c2O	
2600 nM	O=C(O)COc1ccc(/C=C2/Oc3c(ccc(O)c3O)C2=O)c(O)c1	
> 50000 nM	O=C1/C(=C\c2ccc(N3CCOCC3)cc2)Oc2c1ccc(O)c2O	
> 60000 nM	O=C1/C(=C\c2ccc(F)cc2)Oc2c1ccc(O)c2O	
1000 nM	O=C1/C(=C\c2ccc(OCc3ccccc3)cc2O)Oc2c1ccc(O)c2O	
700 nM	COc1ccc(/C=C2/Oc3c(ccc(O)c3O)C2=O)c(O)c1	Ki [4]: 1400 nM; Ki [5]: 100 nM
510 nM	CCCOc1ccc(/C=C2/Oc3c(ccc(O)c3O)C2=O)c(O)c1	
10700 nM	O=C(O)c1ccccc1/C=C1/Oc2c(ccc(O)c2O)C1=O	
320 nM	CCCCCCOc1ccc(/C=C2/Oc3c(ccc(O)c3O)C2=O)c(O)c1	
15000 nM	O=C1/C(=C\c2ccc(O)cc2)Oc2c1ccc(O)c2O	
860 nM	O=C1/C(=C\c2ccc(OCCCCO)cc2O)Oc2c1ccc(O)c2O	
7000 nM	O=C1/C(=C\c2ccc(C(F)(F)F)cc2)Oc2c1ccc(O)c2O	
	3-phosphoshikimate 1-carboxyvinyltransferase (Escherichia coli K-12), P0A6D3 (protein) MESLTLQPIARVDGTINLPGSKSVSNRALLLAALAHGKTVLTNLLDSDDVRHMLNALTALGVSYTLSADRTRCEIIGNGGPLHAEGALELFLGNAGTAMRPLAAALCLGSNDIVLTGEPRMKERPIGHLVDALRLGGAKITYLEQENYPPLRLQGGFTGGNVDVDGSVSSQFLTALLMTAPLAPEDTVIRIKGDLVSKPYIDITLNLMKTFGVEIENQHYQQFVVKGGQSYQSPGTYLVEGDASSASYFLAAAAIKGGTVKVTGIGRNSMQGDIRFADVLEKMGATICWGDDYISCTRGELNAIDMDMNHIPDAAMTIATAALFAKGTTTLRNIYNWRVKETDRLFAMATELRKVGAEVEEGHDYIRITPPEKLNFAEIATYNDHRMAMCFSLVALSDTPVTILDPKCTAKTFPDYFEQLARISQAA	Km [6]: 30 µM
